Columns and labels:
EP4 receptor = target: T1, EP4 receptor (Homo sapiens, UniProt P35408); assay: EP4 receptor antagonistic activity by measurement of cAMP amount in human Jurkat cells (HTRF); type: cell-based; conditions: inhibition of cAMP, PGE2 100 nM
T1 construct: endogenous in cells; host or cells: Jurkat cells (human leukemia T lymphoma), no transfection described
Description: Evaluation Test of EP4 Receptor Antagonistic Activity by Measurement of cAMP Amount in Human Jurkat Cells
Jurkat cells (derived from human leukemia T lymphoma) were cultured with RPMI1640 (added with 10% fetal bovine serum) using a F75 flask. After proliferation to semiconfluency, indomethacin having a final concentration of 5 μM was added thereto, and the cells were further cultured for 18 hours. The cells were collected in a 15-mL Spitz tube, prepared to be 1×10^6 cells/mL using a Cell Banker (Mitsubishi Kagaku Iatron), and stored at −80° C. until used for assay. The cells were cultured in a CO2 incubator (37° C., 5% CO2).
A cAMP HiRange kit (Cisbio international) was used for cAMP measurement. A test compound, PGE2, and the cells were diluted and prepared with an assay buffer. The test compound was prepared to have a 3-fold concentration relative to the final concentration, PGE2 was prepared to be 300 nM, and the Jurkat cells frozen stored were prepared to be 1×10^6 cells/mL by thawing them at 37° C. To a 384-well U-bottom black microplate (Corning) were added the test compound, the cells, and PGE2 in this order in each in an amount of 5 μL, followed by shaking with a plate shaker and incubating at room temperature for 30 minutes. After incubation, 5 μL of a d2 reagent which had been diluted 0.6-fold with a lysis buffer was added to each well, followed by shaking with a plate shaker. Subsequently, 5 μL of an europium cryptate reagent which had been diluted 0.6-fold with a lysis buffer was added to each well, followed by shaking with a plate shaker and incubating at room temperature for 60 minutes under light shielding. After incubation, the fluorescence of the cryptate at 620 nm and the fluorescence of the d2 at 655 nm were measured using ARVO1420 (PerkinElmer). The cAMPs of 280, 70, 17.5, 4.38, 1.09, 0.27, and 0.068 nM were measured simultaneously for creating a standard curve. All measurements were performed in quadruplicate, and inhibitory rates were calculated by determining the cAMP amount of each test sample to the value obtained by subtracting the cAMP amount of the group without addition of PGE2 from the cAMP amount of the group with addition of PGE2 of 100 nM. IC50 values were calculated by a Logistic regression method.
In this connection, as the “assay buffer” and “lysis buffer” above, those as shown below were used:
Assay buffer; 1×HBSS (Hanks buffered salt solution, Nissui Pharmaceutical Co., Ltd.), 20 mM HEPES (pH 7.4, Nakarai Tesque), 0.5 mM IBMX (3-isobutyl-1-methylxanthine, WAKO), 0.02% CHAPS (Sigma), 0.1% Bovine serum albumin (Sigma), 2 μM Indomethacin (Sigma)
Lysis buffer; 50 mM NaPO4, 0.8 M KF, 1% Triton X-100, 0.2% Bovine serum albumin

rat EP4 receptor = rat EP4 receptor (Rattus norvegicus, UniProt P43114); assay: In vivo rat EP4 receptor antagonistic activity (ONO-4819/LPS, plasma TNF-α); conditions: SD rat, oral
Chain of rat EP4 receptor (P43114 whole entry): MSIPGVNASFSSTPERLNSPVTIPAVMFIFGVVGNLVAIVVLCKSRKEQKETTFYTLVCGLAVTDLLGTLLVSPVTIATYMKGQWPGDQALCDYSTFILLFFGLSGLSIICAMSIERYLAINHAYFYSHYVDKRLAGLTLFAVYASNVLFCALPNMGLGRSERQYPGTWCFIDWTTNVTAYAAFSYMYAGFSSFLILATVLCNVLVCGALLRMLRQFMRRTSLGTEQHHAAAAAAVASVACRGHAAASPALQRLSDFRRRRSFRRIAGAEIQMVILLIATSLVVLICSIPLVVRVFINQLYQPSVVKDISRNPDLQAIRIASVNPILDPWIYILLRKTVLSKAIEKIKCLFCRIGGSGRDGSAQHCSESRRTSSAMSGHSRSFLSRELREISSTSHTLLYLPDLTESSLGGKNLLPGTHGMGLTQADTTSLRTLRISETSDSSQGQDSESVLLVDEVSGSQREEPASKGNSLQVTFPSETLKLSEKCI
Description: Evaluation Test of In Vivo Rat EP4 Receptor Antagonistic Activity
A solution of PEG 400:20% Tween 80:aqueous 1 M NaHCO3 solution=1:4:5 of a test compound was orally administered to a SD rat (male, 6-week old) under non-fasting conditions, and after 1 hour, ONO-4819 was administered subcutaneously to the back of the rat. After 30 minutes, Lipopolysaccharide (LPS, 0.01 mg/kg) was administered to the tail vein without anesthesia, and after 60 minutes, 0.5 mL of heparin blood was collected from the fundus under ether anesthesia. The blood sample was centrifuged (3000 rpm, 10 minutes) to separate the plasma, and then the TNF-α concentration in the rat plasma was measured by an ELISA kit (see Hepatology Research Journal, vol. 21, 252-260, 2001). A value obtained by subtracting the TNF-α concentration of the group treated with ONO-4819 from the TNF-α concentration of the group not treated with ONO-4819 was taken as 100%, and the inhibitory rates to the value were calculated for the test compounds.
In this connection, Ex represents the below-described Example compound number.

T1 sequence (P35408 whole entry): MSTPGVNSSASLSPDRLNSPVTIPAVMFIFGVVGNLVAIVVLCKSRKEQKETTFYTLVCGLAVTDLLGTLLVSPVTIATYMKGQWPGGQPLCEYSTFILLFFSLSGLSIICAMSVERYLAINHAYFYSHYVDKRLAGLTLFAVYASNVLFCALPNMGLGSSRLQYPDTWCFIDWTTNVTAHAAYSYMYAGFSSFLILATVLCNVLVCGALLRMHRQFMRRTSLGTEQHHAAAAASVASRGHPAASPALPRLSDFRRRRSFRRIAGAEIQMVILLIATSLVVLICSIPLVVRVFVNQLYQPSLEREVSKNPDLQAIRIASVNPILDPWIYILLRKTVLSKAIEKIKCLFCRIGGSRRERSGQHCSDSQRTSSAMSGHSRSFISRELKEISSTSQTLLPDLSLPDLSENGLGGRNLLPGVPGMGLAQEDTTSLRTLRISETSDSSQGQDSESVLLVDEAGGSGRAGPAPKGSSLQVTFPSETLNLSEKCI

Row | Structure (SMILES) | IC50 (EP4 receptor) [nM] | Inhibitory rate (%) (rat EP4 receptor; dose 0.01 mg/kg) | Inhibitory rate (%) (rat EP4 receptor; dose 0.03 mg/kg)
1 | O=C(NC[C@H]1CC[C@H](C(=O)O)CC1)c1cc(Cl)cc2ccn(Cc3ccc4ccccc4n3)c12 [Example 53] | 0.094 | 45 | 
2 | O=C(O)c1ccc(CNC(=O)c2cc(Cl)cc3ccn(Cc4ccc5ccccc5n4)c23)cc1 [Example 57] | 0.037 |  | 113
3 | O=C(NC[C@H]1CC[C@H](C(=O)O)CC1)c1cc(C(F)(F)F)cc2ccn(Cc3ccc4ccccc4n3)c12 [Example 124] | 0.15 |  | 105

Source: US8598355B2, “Amide compound” (Astellas Pharma Inc., priority 2008, dated 2013)
